# From PMC3108469 (Journal of Medicinal Chemistry, 2011)
# Details: Sprague–Dawley rats
oral bioavailability (%F),Vz,exposure,SMILES
almost no oral bioavailability,,,"CN(C)c1cc(NC(=O)CNC(C)(C)C)c(O)c2c1C[C@H]1C[C@H]3[C@H](N(C)C)C(O)=C(C(N)=O)C(=O)[C@@]3(O)C(O)=C1C2=O [tigecycline, reference compound]"
,exceptionally large,extremely poor exposure,"CN(C)[C@@H]1C(O)=C(C(N)=O)C(=O)[C@@]2(O)C(O)=C3C(=O)c4c(c(F)c5ccc(CN6CCC6)cc5c4O)C[C@H]3C[C@@H]12 [19c-5, (4S,4aS,5aR,14aS)-10-(Azetidin-1-ylmethyl)-4-(dimethylamino)-7-fluoro-3,12,14,14a-tetrahydroxy-1,13-dioxo-1,4,4a,5,5a,6,13,14a-octahydropentacene-2-carboxamide]"
